Experimental data as given in ChEMBL document CHEMBL1773047, “Antiparasitic compounds from Cupania cinerea with activities against Plasmodium falciparum and Trypanosoma brucei rhodesiense” (J Nat Prod, 2011).

How the values were obtained:
[1] = test system: Trypanosoma brucei rhodesiense; assay: Antiparasitic activity against Trypanosoma brucei rhodesiense STIB 900 bloodstream form after 72 hrs by microplate fluorimetry; type: functional, organism-based; details: STIB 900, 72 h
[2] = test system: Plasmodium falciparum; assay: Antiplasmodial activity against chloroquine- and pyrimethamine-resistant Plasmodium falciparum K1 infected in human red blood cells assessed as [3H]hypoxanthine incorporation after 48 hrs by liquid scintillation counting; type: functional, organism-based
[3] = test system: L6; assay: Cytotoxicity against rat L6 cells after 72 hrs by microplate fluorimetry; type: cell-based; details: L6, 72 h

CC1(C)CC[C@]2(C)CC=C3[C@]4(C)CC[C@H]5C(C)(C)[C@@H](O)CC[C@]5(C)[C@H]4CC[C@@]3(C)[C@@H]2C1 [TARAXEROL]
IC50 [1]: 10.5 µM
IC50 [2]: 8.5 µM
IC50 [3]: > 90 µM

C=C1CC[C@@H]2O[C@]2(C)CC[C@@H]2[C@@H]1CC2(C)C
IC50 [1]: > 90 µM
IC50 [2]: > 25 µM
IC50 [3]: > 90 µM

COc1cc(C)c2c(=O)c3c(O)cc(OC)cc3oc2c1 [LICHEXANTHONE]
IC50 [1]: > 90 µM
IC50 [2]: > 20 µM
IC50 [3]: 52.1 µM

C=C(C)[C@@H]1CC[C@]2(CO)CC[C@]3(C)[C@H](CC[C@@H]4[C@@]5(C)CCC(=O)C(C)(C)[C@@H]5CC[C@]43C)[C@@H]12 [BETULONE]
IC50 [1]: 18.9 µM
IC50 [2]: 3 µM
IC50 [3]: 22.2 µM

CC(C)=CCC[C@H](C)[C@@H]1C=C[C@](C)(O)[C@@H](O)C1
IC50 [1]: 61.3 µM
IC50 [2]: > 20 µM
IC50 [3]: > 90 µM

CC(=O)OC[C@H]1O[C@@H](OC/C=C(\C)CC/C=C(\C)CC/C=C(\C)CCC=C(C)C)[C@H](O[C@@H]2O[C@@H](C)[C@H](OC(C)=O)[C@@H](OC(C)=O)[C@H]2OC(C)=O)[C@@H](O)[C@@H]1O [CUPACINOSIDE]
IC50 [1]: 4.6 µM
IC50 [2]: 1.3 µM
IC50 [3]: 11.6 µM

CCCCCC(=O)Cc1cc(OC)cc(O)c1C(=O)Oc1cc(CC(=O)CCCCC)c(C(=O)OC)c(OC)c1 [GUSTASTATIN]
IC50 [1]: 19.4 µM
IC50 [2]: > 9 µM
IC50 [3]: > 90 µM

CC1(C)CC[C@]2(C)CC=C3[C@]4(C)CC[C@H]5C(C)(C)C(=O)CC[C@]5(C)[C@H]4CC[C@@]3(C)[C@@H]2C1 [TARAXERONE]
IC50 [1]: > 90 µM
IC50 [2]: > 10 µM
IC50 [3]: > 90 µM

CC(C)=CCCC(C)C1CC=C(C)C(O)C1O (configuration not stated)
IC50 [1]: 38.2 µM
IC50 [2]: > 20 µM
IC50 [3]: > 90 µM

C=C(C)[C@@H]1CC[C@]2(C)CC[C@]3(C)[C@H](CC[C@@H]4[C@@]5(C)CCC(=O)C(C)(C)[C@@H]5CC[C@]43C)[C@@H]12 [LUPENONE]
IC50 [1]: > 90 µM
IC50 [2]: 4.7 µM
IC50 [3]: > 90 µM

CC1(C)OC(=O)CC[C@]2(C)[C@H]3CC[C@H]4[C@@](C)(CC[C@@]5(C)C(C)(C)CCC[C@]45C)O[C@]3(C)CC[C@@H]12 [CUPACINOXEPIN]
IC50 [1]: 71.6 µM
IC50 [2]: 8.7 µM
IC50 [3]: > 90 µM

CC(=O)O[C@@H]1[C@@H](OC(C)=O)[C@H](C)O[C@@H](O[C@H]2[C@H](OC/C=C(\C)CC/C=C(\C)CC/C=C(\C)CCC=C(C)C)O[C@H](CO)[C@@H](O)[C@@H]2O)[C@@H]1OC(C)=O
IC50 [1]: 15.8 µM
IC50 [2]: 2.1 µM
IC50 [3]: 8.7 µM

CC(C)[C@@]12CC[C@]3(C)[C@H]4CC[C@@H]5[C@@]6(C)CCC(=O)C(C)(C)[C@@H]6CC[C@@]5(C)[C@]4(C)CC[C@@]13O2
IC50 [1]: > 90 µM
IC50 [2]: > 10 µM
IC50 [3]: > 90 µM

COc1cc2ccc(=O)oc2cc1O [SCOPOLETIN]
IC50 [1]: > 90 µM
IC50 [2]: > 25 µM
IC50 [3]: > 90 µM
